# Measurements: ChEMBL document CHEMBL3046097, “Synthesis and QSAR analysis of chalcone derivatives as nitric oxide inhibitory agent” (Med Chem Res, 2012)
# pIC50: −log10 of the molar value.
# Tests used:
# RAW264.7 [1] = assay: Anti-inflammatory activity in Mus musculus (mouse) RAW264.7 cells assessed as inhibition of IFN-gamma/LPS-induced NO production after 17 to 20 hr by Griess assay; format: functional, cell-based; details: for pIC50: read-out: IC50; for IC50: read-out: pIC50 (converted)
# RAW264.7 [2] = assay: Cytotoxicity against Mus musculus (mouse) RAW264.7 cells assessed as reduction in viable cells at 25 uM after 17 to 20 hr by MTT assay; format: cell-based; details: raw264.7, 25 µM
# RAW264.7 [3] = assay: Cytotoxicity against Mus musculus (mouse) RAW264.7 cells assessed as reduction in viable cells at 50 uM after 17 to 20 hr by MTT assay; format: cell-based; details: raw264.7, 50 µM
# RAW264.7 [4] = assay: Cytotoxicity against Mus musculus (mouse) RAW264.7 cells assessed as reduction in viable cells at 250 uM after 17 to 20 hr by MTT assay; format: cell-based; details: raw264.7, 250 µM
SMILES,pIC50 (RAW264.7 [1]),IC50 (RAW264.7 [1]),other results
O=C(/C=C/c1ccccc1O)c1ccccn1,4.52,,
O=C(/C=C/c1cccc(O)c1)c1ccncc1,≤ 4.30,,
O=C(/C=C/c1cccc(O)c1)c1ccc(Cl)s1,4.48,,
O=C(/C=C/c1ccc(O)cc1)c1ccco1,4.60,25.1 µM,
Cc1cc(C(=O)/C=C/c2ccccc2O)c(C)o1,4.86,,
O=C(/C=C/c1ccccc1O)c1ccc(Cl)s1,4.63,,
O=C(/C=C/c1cccc(O)c1)c1ccccn1,4.31,,
O=C(/C=C/c1cccc(O)c1)c1ccco1,4.61,24.5 µM,
O=C(/C=C/c1ccccc1O)c1cccs1,4.79,,
O=C(/C=C/c1ccc(O)cc1)c1cccs1,4.33,,
COC(=O)[C@@H](N)CCCNC(=N)N[N+](=O)[O-] [L-NAME],4.63,,
Cc1cc(C(=O)/C=C/c2ccccc2OCC(=O)O)c(C)o1,≤ 4.30,,
O=C(/C=C/c1ccc(O)cc1)c1ccc(Cl)s1,≤ 4.30,,
O=C(/C=C/c1ccccc1O)c1ccco1,4.71,19.5 µM,
Cc1cc(C(=O)/C=C/c2cccc(O)c2)c(C)o1,5.10,,
COc1cc(O)cc(O)c1C(=O)/C=C/c1ccccc1 [CARDAMOMIN],4.94,,
O=C(/C=C/c1ccc(O)cc1)c1ccncc1,≤ 4.30,,
O=C(/C=C/c1ccccc1O)c1ccncc1,4.50,,

# Continued, in another order:
pIC50 (RAW264.7 [1]),IC50 (RAW264.7 [1]),SMILES,other results
4.79,16.2 µM,Cc1ccc(C(=O)/C=C/c2cccc(F)c2)o1,
4.80,15.8 µM,COc1ccc(OC)c(/C=C/C(=O)c2ccco2)c1,
5.11,7.76 µM,Cc1ccc(C(=O)/C=C/c2cccc(Cl)c2)o1,
4.41,,COc1ccc(OC)c(/C=C/C(=O)c2cccs2)c1,
5.35,4.47 µM,COc1ccc(/C=C/C(=O)c2ccc(C)o2)c(OC)c1OC,
4.79,16.2 µM,Cc1ccc(C(=O)/C=C/c2ccc(O)cc2)o1,
4.89,12.9 µM,Cc1ccc(C(=O)/C=C/c2ccccc2F)o1,
4.84,14.5 µM,Cc1ccc(C(=O)/C=C/c2ccc([N+](=O)[O-])cc2)o1,
4.94,11.5 µM,Cc1ccc(C(=O)/C=C/c2ccc(Cl)cc2)o1,
5.19,6.46 µM,COc1cccc(OC)c1/C=C/C(=O)c1ccc(C)o1,
4.77,17 µM,Cc1ccc(C(=O)/C=C/c2ccc(F)cc2)o1,
5.25,5.62 µM,COc1cc(OC)c(/C=C/C(=O)c2ccc(C)o2)c(OC)c1,
4.58,,COc1ccc(OC)c(/C=C/C(=O)c2ccc(Cl)s2)c1,
4.77,17 µM,Cc1ccc(C(=O)/C=C/c2ccccc2Cl)o1,
5.65,2.24 µM,COc1cccc(/C=C/C(=O)c2ccc(C)o2)c1OC,Activity (RAW264.7 [2]): Toxic; Activity (RAW264.7 [3]): Toxic; Activity (RAW264.7 [4]): Toxic
≤ 4.30,,Cc1ccc(C(=O)/C=C/c2ccccc2OCC(=O)O)o1,
4.67,21.4 µM,Cc1ccc(C(=O)/C=C/c2ccco2)o1,Activity (RAW264.7 [2]): Non-toxic; Activity (RAW264.7 [3]): Non-toxic; Activity (RAW264.7 [4]): Non-toxic
5.03,9.33 µM,Cc1ccc(C(=O)/C=C/c2cccc(O)c2)o1,
5.27,12.3 µM,COc1ccc(/C=C/C(=O)c2ccc(C)o2)c(F)c1,
4.87,,Cc1cc(C(=O)/C=C/c2ccc(O)cc2)c(C)o1,
5.60,2.51 µM,COc1ccc(OC)c(/C=C/C(=O)c2ccc(C)o2)c1,
5.23,6.92 µM,Cc1ccc(C(=O)/C=C/c2ccccc2O)o1,
